What was measured:
GSK3α = GSK3α (Homo sapiens (Human), UniProt P49840); experiment: GSK 3α enzyme inhibition (FRET, Z-LYTE; Method 2); assay type: biochemical
Method in brief: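 GSK3-α protein preincubated with compound for 105 min, then Z-LYTE FRET peptide and ATP added for 1 h before protease development for 1 h. Phosphorylation taken from coumarin/fluorescein emission ratio; percent inhibition against uninhibited control and IC50 calculated from concentration-response curves.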

HT29 cells = experiment: IL-1β-induced IL-8 release in HT29 cells; assay type: cell-based; settings: Homo sapiens, HT-29, IL-1β-stimulated HT29 cells, read-out: IC50 Values for Inhibition of Cytokine Release, HT29 cells IL-8
Protocol: HT29 cells, a human colon adenocarcinorna cell line, are plated in a 96 well plate (24 hrs) and pre-treated with compounds at the desired concentration for 2 hours before addition of 5 ng/mL of IL-1β (Abcam) for 24 hours. Supernatants are harvested for IL-8 quantification by Sandwich ELISA (Duo-set, R&D System). The IC50 is determined from the dose response curve.

[1] = system: TNBS-induced colitis in mice; experiment: TNBS-induced colitis in mice; assay type: in vivo
Protocol: Non-fasted, 10-12 week old, male BDF1 mice are dosed by oral gavage twice daily with either vehicle (5 mL/kg), reference item (Budesonide 2.5 mg/kg) or test compound (1 or 5 mg/kg) one day before (Day −1) stimulation of the inflammatory response by treatment with 2,4,6-trinitrobenzenesuiphonic acid (TNBS) (15 mg/mL in 50% ethanol/50% saline). On Day 0 of the study TNBS (200 μL) is administered intra-colonically via a plastic catheter followed by BID dosing of the vehicle, reference or test compound for 2 or 4 days. During the study animals are weighed every day and stool observations are made and recorded as a score, based on stool consistency. At the time of sacrifice on Day 2 (or Day 4) the large intestine is removed and the length and weight recorded. Sections of the colon are taken for either MPO analysis to determine neutrophil infiltration or for histopathology involving scoring to determine disease severity.

Chain of GSK3α (P49840 whole entry): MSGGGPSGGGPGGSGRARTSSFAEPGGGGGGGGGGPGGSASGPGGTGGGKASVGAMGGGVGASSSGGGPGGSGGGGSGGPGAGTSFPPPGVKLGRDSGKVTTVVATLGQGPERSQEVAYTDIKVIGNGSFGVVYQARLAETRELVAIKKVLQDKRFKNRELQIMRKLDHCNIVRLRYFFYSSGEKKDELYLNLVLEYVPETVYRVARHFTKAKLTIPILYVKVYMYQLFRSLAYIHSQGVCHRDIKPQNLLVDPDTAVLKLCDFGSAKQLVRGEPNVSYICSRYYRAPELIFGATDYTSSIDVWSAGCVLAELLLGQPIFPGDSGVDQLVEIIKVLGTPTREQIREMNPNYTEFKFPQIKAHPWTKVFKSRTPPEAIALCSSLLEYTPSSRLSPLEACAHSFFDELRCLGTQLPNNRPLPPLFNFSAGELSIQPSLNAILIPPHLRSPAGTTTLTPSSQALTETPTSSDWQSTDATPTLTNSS

## COCCOCCOCCOc1cc(Nc2nccc(Oc3ccc(NC(=O)Nc4cc(C(C)(C)C)nn4-c4cccc(CP(C)(C)=O)c4)c4ccccc34)n2)cc(OC)c1 [Example 60, 1-(3-(tert-Butyl)-1-(3-((dimethylphosphoryl)methyl)phenyl)-1H-pyrazol-5-yl)-3-(4-((2-((3-methoxy-5-(2-(2-(2-methoxyethoxy)ethoxy)ethoxy)phenyl)amino)pyrimidin-4-yl)oxy)-naphthalen-1-yl)urea]
GSK3α
  IC50: 1100 nM
HT29 cells
  IC50: 0.8 nM
[1]; 5 mg/kg oral, conducted over 2 days, vehicle 3.6 ± 0.3 (exp. 1), 4.4 ± 0.2 (exp. 2)
  TNBS Ulcer grade: 3.6 ± 0.4
[1]; 5 mg/kg oral, conducted over 2 days, vehicle 3.9 ± 0.3 (exp. 1), 4.5 ± 0.2 (exp. 2)
  TNBS LP inflammation: 2.8 ± 0.4
[1]; conducted over 2 days
  activity in in vivo model of colonic inflammation (histopathology analysis): significant activity
[1]; dosed orally at 5 mg/kg
  inflammatory cell infiltrate in the reticular and laminar propria zone: marked reduction
  ulcer grade and epithelial repair compared to the vehicle control: marked improvements
